Values belong to the compound of their own block, whether it stands above or below them.
Experiments:
[1] = Acute toxicity in BALB/c mouse assessed as ALB2 biochemical parameter at 25 to 100 mg/kg, ip measured for 2 weeks; type: organism-based; settings: in vivo, 336 h, dose 25-100 mg/kg
[2] = Acute toxicity in BALB/c mouse assessed as ALP2L biochemical parameter at 25 to 100 mg/kg, ip measured for 2 weeks; type: organism-based; settings: in vivo, 336 h, dose 25-100 mg/kg
[3] = Acute toxicity in BALB/c mouse assessed as ALTL biochemical parameter at 25 to 100 mg/kg, ip measured for 2 weeks; type: organism-based; settings: in vivo, 336 h, dose 25-100 mg/kg
[4] = Acute toxicity in BALB/c mouse assessed as ASTL biochemical parameter at 25 to 100 mg/kg, ip measured for 2 weeks; type: organism-based; settings: in vivo, 336 h, dose 25-100 mg/kg
[5] = Acute toxicity in BALB/c mouse assessed as CREJ2 biochemical parameter at 25 to 100 mg/kg, ip measured for 2 weeks; type: organism-based; settings: in vivo, 336 h, dose 25-100 mg/kg
[6] = Acute toxicity in BALB/c mouse assessed as LDHI2 biochemical parameter at 25 to 100 mg/kg, ip measured for 2 weeks; type: organism-based; settings: in vivo, 336 h, dose 25-100 mg/kg
[7] = Acute toxicity in BALB/c mouse assessed as vTP2 biochemical parameter at 25 to 100 mg/kg, ip measured for 2 weeks; type: organism-based; settings: in vivo, 336 h, dose 25-100 mg/kg
[8] = Acute toxicity in BALB/c mouse assessed as TRIGL biochemical parameter at 25 to 100 mg/kg, ip measured for 2 weeks; type: organism-based; settings: in vivo, 336 h, dose 25-100 mg/kg
[9] = Acute toxicity in BALB/c mouse assessed as UA2 biochemical parameter at 25 to 100 mg/kg, ip measured for 2 weeks; type: organism-based; settings: in vivo, 336 h, dose 25-100 mg/kg
[10] = Acute toxicity in BALB/c mouse assessed as UREAL biochemical parameter at 25 to 100 mg/kg, ip measured for 2 weeks; type: organism-based; settings: in vivo, 336 h, dose 25-100 mg/kg
[11] = Acute toxicity in BALB/c mouse assessed as adverse effect at 25 to 100 mg/kg, ip measured for 2 weeks; type: organism-based; settings: in vivo, 336 h, dose 25-100 mg/kg
[12] = Acute toxicity in BALB/c mouse assessed as pathological changes in heart at 25 to 100 mg/kg, ip measured for 2 weeks by hematoxylin and eosin staining based assay; type: organism-based; settings: in vivo, 336 h, dose 25-100 mg/kg
[13] = Acute toxicity in BALB/c mouse assessed as pathological changes in liver at 25 to 100 mg/kg, ip measured for 2 weeks by hematoxylin and eosin staining based assay; type: organism-based; settings: in vivo, 336 h, dose 25-100 mg/kg
[14] = Acute toxicity in BALB/c mouse assessed as pathological changes in spleen at 25 to 100 mg/kg, ip measured for 2 weeks by hematoxylin and eosin staining based assay; type: organism-based; settings: in vivo, 336 h, dose 25-100 mg/kg
[15] = Acute toxicity in BALB/c mouse assessed as pathological changes in lung at 25 to 100 mg/kg, ip measured for 2 weeks by hematoxylin and eosin staining based assay; type: organism-based; settings: in vivo, 336 h, dose 25-100 mg/kg
[16] = Acute toxicity in BALB/c mouse assessed as pathological changes in kidney at 25 to 100 mg/kg, ip measured for 2 weeks by hematoxylin and eosin staining based assay; type: organism-based; settings: in vivo, 336 h, dose 25-100 mg/kg
MV4-11 [17] = assay: In vivo anti-leukemia activity against human MV4-11 cells transplanted in BALB/c nude mouse assessed as reduction in tumor volume at 2.5 mg/kg, ip twice weekly treatment started 7 th day of cell inoculum till 18 th day; type: functional; design: scale not given: the % may be the effect or the level left; settings: time 11 day
MV4-11 [18] = assay: In vivo anti-leukemia activity against human MV4-11 cells transplanted in BALB/c nude mouse assessed as reduction in tumor weight at 2.5 mg/kg, ip twice weekly treatment started 7 th day of cell inoculum till 18 th day; type: functional; design: scale not given: the % may be the effect or the level left; settings: time 11 day
MV4-11 [19] = assay: In vivo anti-leukemia activity against human MV4-11 cells transplanted in BALB/c nude mouse assessed as reduction in tumor volume at 5 mg/kg, ip twice weekly treatment started 7 th day of cell inoculum till 18 th day; type: functional; design: scale not given: the % may be the effect or the level left; settings: time 11 day
MV4-11 [20] = assay: In vivo anti-leukemia activity against human MV4-11 cells transplanted in BALB/c nude mouse assessed as reduction in tumor weight at 5 mg/kg, ip twice weekly treatment started 7 th day of cell inoculum till 18 th day; type: functional; design: scale not given: the % may be the effect or the level left; settings: time 11 day
MV4-11 [21] = assay: In vivo anti-leukemia activity against human MV4-11 cells transplanted in BALB/c nude mouse assessed as reduction in tumor volume at 10 mg/kg, ip twice weekly treatment started 7 th day of cell inoculum till 18 th day; type: functional; design: scale not given: the % may be the effect or the level left; settings: time 11 day
MV4-11 [22] = assay: In vivo anti-leukemia activity against human MV4-11 cells transplanted in BALB/c nude mouse assessed as reduction in tumor weight at 10 mg/kg, ip twice weekly treatment started 7 th day of cell inoculum till 18 th day; type: functional; design: scale not given: the % may be the effect or the level left; settings: time 11 day
[23] = Toxicity in BALB/c nude mouse transplanted with human MV4-11 cells assessed as change in body weight at 2.5 to 10 mg/kg, ip measured for 17 days; type: organism-based; settings: in vivo, 408 h, dose 2.5-10 mg/kg, time 17 day
[24] = Toxicity in BALB/c nude mouse transplanted with human MV4-11 cells assessed as pathological damage in heart at 2.5 to 10 mg/kg, ip measured for 17 days by hematoxylin and eosin staining based assay; type: organism-based; settings: in vivo, 408 h, dose 2.5-10 mg/kg, time 17 day
[25] = Toxicity in BALB/c nude mouse transplanted with human MV4-11 cells assessed as pathological damage in liver at 2.5 to 10 mg/kg, ip measured for 17 days by hematoxylin and eosin staining based assay; type: organism-based; settings: in vivo, 408 h, dose 2.5-10 mg/kg, time 17 day
[26] = Toxicity in BALB/c nude mouse transplanted with human MV4-11 cells assessed as pathological damage in spleen at 2.5 to 10 mg/kg, ip measured for 17 days by hematoxylin and eosin staining based assay; type: organism-based; settings: in vivo, 408 h, dose 2.5-10 mg/kg, time 17 day
[27] = Toxicity in BALB/c nude mouse transplanted with human MV4-11 cells assessed as pathological damage in lung at 2.5 to 10 mg/kg, ip measured for 17 days by hematoxylin and eosin staining based assay; type: organism-based; settings: in vivo, 408 h, dose 2.5-10 mg/kg, time 17 day
[28] = Toxicity in BALB/c nude mouse transplanted with human MV4-11 cells assessed as pathological damage in kidney at 2.5 to 10 mg/kg, ip measured for 17 days by hematoxylin and eosin staining based assay; type: organism-based; settings: in vivo, 408 h, dose 2.5-10 mg/kg, time 17 day
[29] = Cmax in Sprague-Dawley rat at 5 mg/kg, iv measured upto 12 hrs by LC-MS analysis; type: ADME, organism-based; settings: in vivo
[30] = AUC(0 to 12hrs) in Sprague-Dawley rat at 5 mg/kg, iv measured upto 12 hrs by LC-MS analysis; type: ADME, organism-based; settings: in vivo
[31] = Half life in Sprague-Dawley rat at 5 mg/kg, iv measured upto 12 hrs by LC-MS analysis; type: ADME, organism-based; settings: in vivo
[32] = Clearance in Sprague-Dawley rat at 5 mg/kg, iv measured upto 12 hrs by LC-MS analysis; type: ADME, organism-based; settings: in vivo
[33] = MRT (0 to 12hrs) in Sprague-Dawley rat at 5 mg/kg, iv measured upto 12 hrs by LC-MS analysis; type: ADME, organism-based; settings: in vivo
[34] = Bioavailability in Sprague-Dawley rat at 5 mg/kg, iv measured upto 12 hrs by LC-MS analysis; type: ADME, organism-based; settings: in vivo
[35] = Cmax in Sprague-Dawley rat at 15 mg/kg, po measured upto 12 hrs by LC-MS analysis; type: ADME, organism-based; settings: in vivo
[36] = Tmax in Sprague-Dawley rat at 15 mg/kg, po measured upto 12 hrs by LC-MS analysis; type: ADME, organism-based; settings: in vivo
[37] = AUC(0 to 12hrs) in Sprague-Dawley rat at 15 mg/kg, po measured upto 12 hrs by LC-MS analysis; type: ADME, organism-based; settings: in vivo
[38] = Half life in Sprague-Dawley rat at 15 mg/kg, po measured upto 12 hrs by LC-MS analysis; type: ADME, organism-based; settings: in vivo
[39] = MRT (0 to 12hrs) in Sprague-Dawley rat at 15 mg/kg, po measured upto 12 hrs by LC-MS analysis; type: ADME, organism-based; settings: in vivo

SMILES: Cl.N#Cc1cccc(CN2CCc3[nH]c(NCc4ccc(F)cc4)nc(=O)c3C2)c1
Activity [1]: Non-Toxic
Activity [2]: Non-Toxic
Activity [3]: Non-Toxic
Activity [4]: Non-Toxic
Activity [5]: Non-Toxic
Activity [6]: Non-Toxic
Activity [7]: Non-Toxic
Activity [8]: Non-Toxic
Activity [9]: Non-Toxic
Activity [10]: Non-Toxic
Activity [11]: Non-Toxic
Activity [12]: Non-Toxic
Activity [13]: Non-Toxic
Activity [14]: Non-Toxic
Activity [15]: Non-Toxic
Activity [16]: Non-Toxic
Activity (MV4-11 [17]): 20.52%
Activity (MV4-11 [18]): 20.35%
Activity (MV4-11 [19]): 75.3%
Activity (MV4-11 [20]): 67%
Activity (MV4-11 [21]): 88.29%
Activity (MV4-11 [22]): 88.88%
Activity [23]: Non-Toxic
Activity [24]: Non-Toxic
Activity [25]: Non-Toxic
Activity [26]: Non-Toxic
Activity [27]: Non-Toxic
Activity [28]: Non-Toxic
Cmax [29]: 869 ng/mL
AUC(0-t) at 12 h [30]: 791 ng·h/mL
half-life [31]: 4.9 h
clearance [32]: 58.3 mL/min/kg
MRT last at 12 h [33]: 2.8 h
bioavailability [34]: 32.7%
Cmax [35]: 332 ng/mL
Tmax [36]: 1 h
AUC(0-t) at 12 h [37]: 780 ng·h/mL
half-life [38]: 3.9 h
MRT last at 12 h [39]: 2.4 h

Cmax [29]: 970 ng/mL
AUC(0-t) at 12 h [30]: 1270 ng·h/mL
half-life [31]: 1.1 h
clearance [32]: 96.7 mL/min/kg
MRT last at 12 h [33]: 0.7 h
bioavailability [34]: 14.8%
Cmax [35]: 448 ng/mL
Tmax [36]: 0.5 h
AUC(0-t) at 12 h [37]: 565 ng·h/mL
half-life [38]: 1.4 h
MRT last at 12 h [39]: 1.3 h
SMILES: Cc1ccccc1CN1C(=O)C2=C(CCN(Cc3ccccc3)C2)N2CCN=C12.Cl
